Common to all, as to assay type: biochemical
Experiment [1] concerns the target T1, unspecific peroxygenase (UPO) PaDa-I (Cyclocybe aegerita, UniProt B9W4V6, V100A/L110F/V118I/I291V/F354L).
T1 construct: gene APO1; laboratory-evolved variant PaDa-I, heterologously expressed and purified
T1 sequence (B9W4V6 44-371 V100A/L110F/V118I/I291V/F354L): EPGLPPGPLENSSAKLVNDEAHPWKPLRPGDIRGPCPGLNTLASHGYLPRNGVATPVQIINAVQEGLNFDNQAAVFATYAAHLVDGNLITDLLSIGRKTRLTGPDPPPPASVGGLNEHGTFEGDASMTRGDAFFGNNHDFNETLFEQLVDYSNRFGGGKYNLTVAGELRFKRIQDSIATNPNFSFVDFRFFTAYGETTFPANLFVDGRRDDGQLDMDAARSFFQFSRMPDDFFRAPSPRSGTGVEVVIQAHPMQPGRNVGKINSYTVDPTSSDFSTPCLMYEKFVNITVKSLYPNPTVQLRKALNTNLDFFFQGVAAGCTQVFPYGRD
Briefly: colorimetric peroxygenation assay (4-nitrocatechol production), Michaelis-Menten plot.

Experiment [2] concerns the target T2, unspecific peroxygenase (UPO) PaDa-I (Cyclocybe aegerita, UniProt B9W4V6, F354L/I291V/L110F/V100A/V118I).
T2 construct: gene APO1; laboratory-evolved variant PaDa-I, heterologously expressed and purified
T2 sequence (B9W4V6 44-371 V100A/L110F/V118I/I291V/F354L): T1 sequence (B9W4V6 44-371 V100A/L110F/V118I/I291V/F354L)
Nature of the experiment: inhibition of NBD peroxygenation (Michaelis-Menten kinetics); also uncompetitive inhibition of ABTS peroxidation.

The target of experiment [3] is T1, unspecific peroxygenase (UPO) PaDa-I. Nature of the experiment: H2O2-dependent ether oxidation, total turnover number by HPLC.
For experiment [4], the target named is T2, unspecific peroxygenase (UPO) PaDa-I. Briefly: inhibition of catalase activity (O2 production, Clark electrode); substrate consumption by HPLC.

The source of these data is PMC8396878, “Ether Oxidation by an Evolved Fungal Heme-Peroxygenase: Insights into Substrate Recognition and Reactivity” (Journal of Fungi, 2021).

As a reminder, the Ki is the equilibrium dissociation constant of an inhibitor or competing ligand from its target. Lower therefore signals a stronger hold on the target.

Turning to `O=[N+]([O-])c1ccc2c(c1)OCO2` [NBD, 5-nitro-1,3-benzodioxole], the “colorimetric peroxygenation assay (4-nitrocatechol production), Michaelis-Menten” value in experiment [1] was “Michaelis–Menten plots for (A) NBD peroxygenation and (B) ABTS peroxidation in the presence of benzyloxyacetate”. `O=C(O)COCc1ccccc1` [benzyloxyacetate]: in experiment [2], the inhibitory constant (Ki) is 3.45 mM. Turning to `c1ccc(COCc2ccccc2)cc1` [dibenzylether], the “H2O2-dependent ether oxidation, total turnover number by HPLC” value in experiment [3] is “the more hydrophobic substrate (dibenzylether) was the most efficiently converted”. Turning to `OCCOCc1ccccc1` [2-(benzyloxy)ethanol], in experiment [4], the inhibition constant (Ki) was found to be 390 µM.
